Measurements as given in the NIST ThermoML archive (doi:10.1021/je020120h).
± gives the expanded uncertainty stated by the source.

Experiments:
[1] = 298.15 K; 101.33 kPa; Liquid; Vibrating tube method
[2] = excess molar enthalpy (molar enthalpy of mixing); xn = mol fraction of the nth substance listed; conditions: 298.15 K, 101.3 kPa, Liquid, Flow calorimetry

Cc1ccccc1C [1,2-dimethylbenzene]
Conditions | mass density [kg/m3]
[1] | 875 ± 0.5

Cc1ccccc1C [1,2-dimethylbenzene] + COC(=O)OC
[2]
Conditions | excess molar enthalpy [kcal/mol]
x2 = 0.0511 | 0.0266 ± 0.000645
x2 = 0.1006 | 0.0553 ± 0.00124
x2 = 0.1503 | 0.0795 ± 0.00174
x2 = 0.2016 | 0.0932 ± 0.00203
x2 = 0.2513 | 0.106 ± 0.00232
x2 = 0.3024 | 0.125 ± 0.00263
x2 = 0.3519 | 0.137 ± 0.00287
x2 = 0.3998 | 0.147 ± 0.00311
x2 = 0.4514 | 0.153 ± 0.00335
x2 = 0.5013 | 0.155 ± 0.00335
x2 = 0.5519 | 0.153 ± 0.00335
x2 = 0.6007 | 0.149 ± 0.00311
x2 = 0.6502 | 0.142 ± 0.00311
x2 = 0.7002 | 0.132 ± 0.00287
x2 = 0.7504 | 0.12 ± 0.00263
x2 = 0.8008 | 0.104 ± 0.00227
x2 = 0.8513 | 0.0841 ± 0.00184
x2 = 0.8998 | 0.0605 ± 0.00134
x2 = 0.9501 | 0.0322 ± 0.000765

Cc1cccc(C)c1 [1,3-dimethylbenzene]
Conditions | mass density [kg/m3]
[1] | 860 ± 0.5

Cc1cccc(C)c1 [1,3-dimethylbenzene] + COC(=O)OC
[2]
Conditions | excess molar enthalpy [kcal/mol]
x2 = 0.0502 | 0.0299 ± 0.000717
x2 = 0.1006 | 0.0579 ± 0.00129
x2 = 0.151 | 0.0824 ± 0.00182
x2 = 0.2014 | 0.102 ± 0.00222
x2 = 0.2517 | 0.119 ± 0.00263
x2 = 0.3004 | 0.133 ± 0.00287
x2 = 0.3503 | 0.144 ± 0.00311
x2 = 0.4014 | 0.153 ± 0.00335
x2 = 0.4506 | 0.158 ± 0.00335
x2 = 0.5007 | 0.16 ± 0.00359
x2 = 0.5515 | 0.16 ± 0.00335
x2 = 0.6004 | 0.156 ± 0.00335
x2 = 0.6522 | 0.149 ± 0.00311
x2 = 0.7018 | 0.14 ± 0.00311
x2 = 0.7517 | 0.127 ± 0.00263
x2 = 0.8017 | 0.109 ± 0.00239
x2 = 0.8517 | 0.0878 ± 0.00194
x2 = 0.9015 | 0.063 ± 0.00141
x2 = 0.9509 | 0.0337 ± 0.000789

Cc1ccc(C)cc1 [1,4-dimethylbenzene]
Conditions | mass density [kg/m3]
[1] | 856.7 ± 0.4

Cc1ccc(C)cc1 [1,4-dimethylbenzene] + COC(=O)OC
[2]
Conditions | excess molar enthalpy [kcal/mol]
x2 = 0.0504 | 0.0295 ± 0.000693
x2 = 0.101 | 0.0543 ± 0.00122
x2 = 0.1515 | 0.0837 ± 0.00184
x2 = 0.202 | 0.102 ± 0.00222
x2 = 0.2529 | 0.119 ± 0.00263
x2 = 0.3012 | 0.133 ± 0.00287
x2 = 0.3512 | 0.145 ± 0.00311
x2 = 0.4022 | 0.153 ± 0.00335
x2 = 0.4515 | 0.159 ± 0.00335
x2 = 0.5016 | 0.161 ± 0.00359
x2 = 0.5524 | 0.16 ± 0.00359
x2 = 0.6013 | 0.156 ± 0.00335
x2 = 0.6507 | 0.149 ± 0.00311
x2 = 0.7004 | 0.139 ± 0.00311
x2 = 0.7503 | 0.125 ± 0.00263
x2 = 0.8003 | 0.109 ± 0.00237
x2 = 0.8502 | 0.0879 ± 0.00194
x2 = 0.9018 | 0.0621 ± 0.00139
x2 = 0.9511 | 0.033 ± 0.000765

COC(=O)OC [dimethyl carbonate]
Conditions | mass density [kg/m3]
[1] | 1063.1 ± 0.5

CCOC(=O)c1ccccc1 [ethyl benzoate]
Conditions | mass density [kg/m3]
[1] | 1041.3 ± 0.5

CCOC(=O)c1ccccc1 [ethyl benzoate] + COC(=O)OC
[2]
Conditions | excess molar enthalpy [kcal/mol]
x2 = 0.05 | 0.0138 ± 0.000382
x2 = 0.0999 | 0.0284 ± 0.000669
x2 = 0.1497 | 0.0413 ± 0.000956
x2 = 0.1991 | 0.0541 ± 0.00122
x2 = 0.2482 | 0.0641 ± 0.00143
x2 = 0.2984 | 0.073 ± 0.00163
x2 = 0.3495 | 0.0804 ± 0.00177
x2 = 0.4012 | 0.0861 ± 0.00189
x2 = 0.4503 | 0.09 ± 0.00198
x2 = 0.4998 | 0.0919 ± 0.00201
x2 = 0.5495 | 0.0924 ± 0.00203
x2 = 0.599 | 0.0911 ± 0.00198
x2 = 0.6506 | 0.0872 ± 0.00191
x2 = 0.6993 | 0.0831 ± 0.00182
x2 = 0.7495 | 0.075 ± 0.00165
x2 = 0.8007 | 0.0655 ± 0.00146
x2 = 0.8507 | 0.0533 ± 0.0012
x2 = 0.8993 | 0.0387 ± 0.000884
x2 = 0.9498 | 0.0207 ± 0.000526

CCc1ccccc1 [ethylbenzene]
Conditions | mass density [kg/m3]
[1] | 862.5 ± 0.1

CCc1ccccc1 [ethylbenzene] + COC(=O)OC
[2]
Conditions | excess molar enthalpy [kcal/mol]
x2 = 0.0501 | 0.0215 ± 0.000526
x2 = 0.1003 | 0.0489 ± 0.0011
x2 = 0.149 | 0.0639 ± 0.00141
x2 = 0.201 | 0.0848 ± 0.00186
x2 = 0.2512 | 0.104 ± 0.00227
x2 = 0.2998 | 0.119 ± 0.00263
x2 = 0.3525 | 0.133 ± 0.00287
x2 = 0.4005 | 0.143 ± 0.00311
x2 = 0.4524 | 0.15 ± 0.00335
x2 = 0.5025 | 0.153 ± 0.00335
x2 = 0.5507 | 0.153 ± 0.00335
x2 = 0.602 | 0.151 ± 0.00335
x2 = 0.6513 | 0.145 ± 0.00311
x2 = 0.7011 | 0.135 ± 0.00287
x2 = 0.7512 | 0.123 ± 0.00263
x2 = 0.8012 | 0.106 ± 0.00232
x2 = 0.8513 | 0.0865 ± 0.00189
x2 = 0.9012 | 0.0623 ± 0.00139
x2 = 0.9509 | 0.0335 ± 0.000789
